Data taken from patent US20180325157A1, “A DIETARY SUPPLEMENT COMPRISING BETA-GLUCAN AND CASEIN HYDROLSATE FOR IMPROVING HEALTH AND GROWTH PERFORMANCE IN A MAMMAL” (University College Dublin, National University of Ireland, …, priority 2015, published 2018).
Values joined by “and” are separate entries in the source; they are usually repeats but may differ in a detail not shown here. Equal values may be shown once.

Legend:
weaning piglets = experiment: Body weight and growth performance of weaned piglets over 12 days; type: in vivo, pig
Excerpt: This study was designed in a completely randomized block design with 5 dietary groups. The dietary groups are as follows: 1) control diet, 2) control diet+ZnO, 3) control diet+casein hydrolysate, 4) control diet+(3 glucan and 5) control diet+casein hydrolysate+β glucan. The control diet used in this study was based on previous work by Walsh et al. (2013). The levels of casein hydrolysate used were based on previous experiment and the levels of β glucan, derived from yeast (S. cerevisiae), used were based on a previous study by Sweeney et al. (2012). Diets were formulated to contain similar concentrations of digestible energy (DE) (14.5 MJ/kg) and standardized ileal digestible (SID) lysine (12.5 g/kg) contents. All amino acids requirements were met relative to SID lysine (NRC, 1998). All diets were milled on site and fed in meal form for 12 days after weaning.
Forty weaned piglets [progeny of Landrace boars×(Large White×Landrace sow)] were weighed and blocked on the basis of initial live body weight (7.3±0.2 kg) and assigned to 1 of the 5 dietary treatment groups (n=8). Piglets were weighted individually at the beginning of the experiment (day 0=day of weaning), day 6 and day 12. The piglets were housed in groups of two on fully slatted floors (1.68×1.22 m). The ambient environmental temperature within the house was thermostatically controlled at 30° C. The feed was available ad libitum and water was available via nipple drinkers. Feed was available up to the final weighing and all remaining feed was weighed back for the purpose of calculating feed efficiency.
The current study was a complete randomised design experiment and data analysed using the general linear model procedure of the Statistical Analysis Institute (SAS, 2004). The individual pen represented the experimental unit for the performance analysis. All the data were checked initially for normality using the PROC univariate procedure in SAS (2004). The microbial counts were log transformed before statistical analysis. Probability values of less than 0.05 were used as the criterion for statistical significance. Intercorrelations between cytokines and cytokine regulatory genes was analysed in a correlation matrix using PASW 18 (SPSS for Windows, […]; SPSS, Chicago, Ill.) and the Pearson's r value greater than 0.400 was considered to be positively correlated. All results are presented in the tables as least square means±standard error of the means (SEM).

Bacteroidetes = experiment: qPCR of bacterial groups in digesta: Bacteroidetes; type: in vivo, pig; details: caecal digesta, day 12
Experimental: (§1) At day 12, all the pigs were sacrificed following a lethal injection of Euthatal (pentobarbitone sodium BP-Merial Animal Ltd, Sandringham House, Essex, UK) at a rate of […] live body weight. In sterile conditions, the digestive tract was removed and tissue samples from colon were placed in sterile phosphate buffer saline (PBS) (Oxoid, Basingstoke, UK). The digesta samples were recovered aseptically from caecum and colon and transported on ice to proper storage conditions.
(§2) To evaluate the effect of feed additives on the microbiota, samples of digesta contents (approximately 10 g) were recovered from the caecum and colon of each animal in sterile conditions immediately after slaughter. […] Quantity and quality of DNA were assessed using a Nanodrop (Nanodrop, ND1000; Thermo Scientific, Wilmington, Del.).
(§3) A combined aliquot of bacterial genomic DNA from all animals were used for preparation of standard curves. […] Thermal cycling conditions used were similar to the condition described below for quantitative real-time PCR. Standard curves were subsequently generated by quantitative real-time PCR of serial dilutions of these amplicons using the same genus and species-specific primers to permit absolute quantification based on gene copy number (Lee et al., 2006). […] The dry matter (DM) of the digesta was determined after drying overnight at 103° C. […]

Bifidobacteria spp. = experiment: qPCR of bacterial groups in digesta: Bifidobacteria; type: in vivo, pig; details: day 12
Experimental: as §1, §2, §3

[1] = test system: selected panel of bacterial groups; experiment: qPCR of the other selected bacterial groups in colonic digesta; type: in vivo, pig; details: day 12
Experimental: as §1, §2, §3

IL-1α = experiment: Cytokine gene expression in colonic tissue (qPCR): IL-1α; type: in vivo, porcine; details: day 12, normalised relative quantity
Experimental: (§4) Tissue samples were collected from the mesenteric side of the colon, rinsed with ice-cold sterile phosphate-buffered saline (Oxoid, Basingstoke, UK) and stripped of overlying smooth muscle. The samples were then cut into small pieces using a sterile scalpel blade and stored in 15 ml of RNAlater™ (Applied biosystems, Foster city, CA, USA) overnight followed by storage at −20° C. prior to RNA extraction. Total RNA was extracted from the colonic tissue samples using a GenElute Mammalian Total RNA Miniprep Kit (Sigma-Aldrich Corporation, St Louis, Mo., USA) according to the manufacturer's instructions. […] The total RNA was quantified and assessed for purity using the NanoDrop-ND1000 Spectrophotometer (Thermo Fisher Scientific Inc. MA, USA). The quality of the total RNA was determined by visualizing on an ethidium bromide stained 1% agarose gel. […]
(§5) qPCR was carried out to quantify the following two sets of targets: the first set of target are a selected panel of cytokine genes; Interleukins (IL-1a, IL-1β, IL-4, IL-6, IL-8, IL-10, IL-17A, IL-21), Interferon (IFN-γ), Tumor Necrosis Factor (TNFα), Transforming growth factor (TGF-β) and Forkhead box P3 (FOXP3). […]
(§6) Mean Ct values were converted to relative quantities using the formula, Relative quantity=(PCR efficiency) ΔCt, where ΔCt is the change in the Ct values of the sample relative to the highest expression (minimum Ct value). […]

IL-1β = experiment: Cytokine gene expression in colonic tissue (qPCR): IL-1β; type: in vivo, porcine; details: day 12, normalised relative quantity
Experimental: as §4, §5, §6

IL-8 = experiment: Cytokine gene expression in colonic tissue (qPCR): IL-8; type: in vivo, porcine; details: day 12, normalised relative quantity
Experimental: as §4, §5, §6

IL-17 = experiment: Cytokine gene expression in colonic tissue (qPCR): IL-17; type: in vivo, porcine; details: day 12, normalised relative quantity
Experimental: as §4, §5, §6

TGF-β = experiment: Cytokine gene expression in colonic tissue (qPCR): TGF-β; type: in vivo, porcine; details: day 12, normalised relative quantity
Experimental: as §4, §5, §6

weaning piglet = details: previous experiments, cited from earlier work

Compound: [O]=[Zn] [ZnO, zinc oxide]
- Gain to feed (Day 0-12) (weaning piglets; Day 0-12): 0.26 kg/kg
- OADG (overall average daily gain) (Day 0-12) (weaning piglets; Day 0-12): 0.10 kg/day
- OFI (overall feed intake) (Day 0-12) (weaning piglets; Day 0-12): 0.37 kg/day
- Weight (kg) Weight 0-6 (weaning piglets; Weight 0-6): 7.53 kg
- Weight (kg) Weight 6-12 (weaning piglets; Weight 6-12 (end of experiment)): 8.64 kg and 8.64^a kg
- abundance of Bacteroidetes copy numbers (Bacteroidetes): 12.60 log10 bacteria/g DM digesta
- Bifidobacteria spp. numbers (Bifidobacteria spp.; caecal digesta): 8.94 log10 bacteria/g DM digesta
- abundance of Bifidobacteria copy numbers (Bifidobacteria spp.; colonic digesta): 8.96 log10 bacteria/g DM digesta
- bacterial copy numbers of any other bacterial group [1]: No change
- IL-1α expression (IL-1α): 0.006 RQ
- IL-1β expression (IL-1β): 0.010 RQ
- IL-8 expression (IL-8): 0.003 RQ
- IL-17 expression (IL-17): 0.061 RQ
- TGF-β expression (TGF-β): 0.183 RQ
- anti-inflammatory activity in the weaning piglet gut (weaning piglet; weaning piglet gut): anti-inflammatory activity
- overall growth performance parameters (weaning piglet; weaning piglet): improved
